Source: US8268961B2, “Antibacterial peptides and analogues thereof” (Universita Degli Studi di Siena, priority 2004, dated 2012)
Positions of bridges follow the written chain, without caps; N, C: chain ends. Chains are numbered I, II in the order given. No end group written: not given here.

What was measured:
[1] = tested on: Staphylococus aureus MIU-68A; type: cell-based, Staphylococcus aureus
Excerpt: MIC is defined as the lowest concentration, in an antibiotic dilution range, that inhibits visible bacterial growth. The importance of MIC sensitivity test is based on the principle that in vitro sensitivity provides a predictive indication of the in vivo efficacy of the antibiotic therapy. Values are expressed as molar concentration and compared to MIC values obtained with commercially available antibiotics such as amikacin, ceftriaxone and levofloxacin (Table 3).
Reference strains (Escherichia coli ATCC 25922, Pseudomonas aeruginosa ATCC 27853, Staphylococus aureus ATCC 25923 and Chryseobacterium meningosepticum CCUG 4310) and several recent clinical isolates (including multidrug-resistant ones) of various species (Table 2) were used for conventional susceptibility testing experiments. Minimum Inhibitory Concentration (MIC) was determined by a standard microdilution assay as recommended by the National Commitee for Clinical Laboratory Standards (NCCLS) using cation-supplemented Mueller-Hinton (MH) broth (Oxoid Ltd. Basingstoke, UK) and a bacterial inoculum of 5×10^4 CFU per well, in a final volume of 100 μl. Results were recorded by visual inspection after 24 h of incubation at 37° C.

[2] = tested on: E. coli strain TG1; test: Test of antibacterial activity (colony growth inhibition) on E. coli strain TG1; type: cell-based; conditions: E. coli TG1, colony counting vs control without peptide
Outline: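 E. coli TG1 (OD600 0.2) was incubated 75 min at 37 °C with peptide in PBS at 0.12–2 mg/ml. Cells were then diluted 1:1000, plated on 2×TY agar and grown overnight at 30 °C, and colonies were counted against an untreated control.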

[3] = tested on: murine macrophage cells J774 A.1; test: Cytotoxicity test by MTT; type: cell-based, mouse
Outline: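 J774 A.1 cells in DMEM with 10% foetal bovine serum and antibiotics were exposed to filtered peptides at various concentrations overnight at 37 °C. Viability read by MTT (0.5 mg/ml, 90 min), solubilised in SDS 10%/DMF 45% at pH 4.5, absorbance at 595/650 nm.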

[4] = Stability to plasmatic protease (HPLC); type: in vitro ADME, human
Outline: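 Linear and MAP peptides (10 mM in H2O) incubated with human plasma and serum at 37° C. for 2 and 24 hours. Reaction stopped with methanol; supernatant analysed by reverse-phase C18 HPLC (20-95% TFA/methanol gradient, 30 min) for undigested peptide.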

[5] = tested on: E. coli plasmid vector pCEP4 DNA; test: DNA binding assay (gel retardation)
Protocol: In an attempt to clarify the molecular mechanism of action, the authors examined the binding properties on DNA exerted by M6 dendrimeric peptide and magainin 2, an antimicrobial peptide which has a pore-forming activity on the cell membrane. The DNA binding abilities of M6 and magainin 2 were examined by analyzing the electrophoretic mobility of DNA bands at the various weight ratios of peptides to DNA on a 1% (w/v) agarose gel.
Gel-retardation experiments were performed by mixing 200 ng of the E. coli plasmid vector pCEP4 (Invitrogen) with increasing amounts of M6 peptide in 20 μl of binding buffer (5% glycerol, 10 mM Tris-HCl (pH 8.0), 1 mM EDTA, 1 mM DTT, 20 mM KCl and 50 μg/ml BSA). The reaction mixtures were incubated at room temperature for 1 h. Subsequently, 4 μl of native loading buffer was added (40% saccarose, 0.25% bromophenol blue) and an aliquot of 12 μl was applied to a 1% agarose gel electrophoresis in 1 mM Tris borate-EDTA buffer.

## I: QKKIRVRLSAKKA-OH / II: QKKIRVRLSAK / III: QKKIRVRLSA / IV: QKKIRVRLSA (amide I:11-IV:C, I:12-II:C, II:11-III:C) [M6, QKKIRVRLSA]
[1]
  MIC (Molarity): 49 µM
[2]
  Antibacterial activity on E. coli TG1 colony growth: good antibacterial activity
[3]
  Concentration at and over which a drop in cell viability was evident (MTT): ≥ 125 µg/mL
  Vitality of J774 A.1 cells as the concentration of MAP peptides increases (MTT): decreases
[4]
  Resistance to plasmatic protease: Plasma 2 h: +
  Resistance to plasmatic protease: Plasma 24 h: +
[5]; 200 ng pCEP4, 1% agarose gel, 1 h room temperature
  Weight ratio of peptide to DNA at which migration of DNA is inhibited: > 0.2
[5]; from gel retardation weight ratios
  DNA binding tightness relative to magainin 2: over 25 times
